From patent publication US20230416227A1, “PLASMA KALLIKREIN INHIBITORS” (Merck Sharp & Dohme LLC, priority 2020, published 2023) come the findings set out here.

This experiment deals with T1, Human plasma kallikrein (Homo sapiens, UniProt P03952).
T1 construct: yields a heavy chain (371 amino acids) and a light chain (248 amino acids); purchased Enzyme Research Laboratories
T1 sequence (P03952 391-638 limits assumed): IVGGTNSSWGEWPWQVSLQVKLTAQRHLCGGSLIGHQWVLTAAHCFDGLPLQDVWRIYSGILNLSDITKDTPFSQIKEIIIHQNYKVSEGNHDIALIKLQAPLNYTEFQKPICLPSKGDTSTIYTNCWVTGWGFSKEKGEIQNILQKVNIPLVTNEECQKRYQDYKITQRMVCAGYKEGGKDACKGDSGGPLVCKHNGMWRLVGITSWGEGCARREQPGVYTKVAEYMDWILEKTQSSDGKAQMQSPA
T1 sequence (P03952 20-390 partner limits assumed): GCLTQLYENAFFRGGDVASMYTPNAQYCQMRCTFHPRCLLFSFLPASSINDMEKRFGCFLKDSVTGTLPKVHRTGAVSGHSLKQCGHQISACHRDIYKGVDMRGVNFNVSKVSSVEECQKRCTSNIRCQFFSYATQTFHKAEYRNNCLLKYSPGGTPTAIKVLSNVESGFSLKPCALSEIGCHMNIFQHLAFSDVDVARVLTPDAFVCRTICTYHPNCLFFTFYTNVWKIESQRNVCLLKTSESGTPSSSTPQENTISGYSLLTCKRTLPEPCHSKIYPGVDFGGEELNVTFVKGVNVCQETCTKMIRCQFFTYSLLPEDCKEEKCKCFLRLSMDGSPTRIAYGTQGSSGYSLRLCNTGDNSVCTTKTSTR
Kind of experiment: Plasma Kallikrein Assay. Conditions: purified Human plasma kallikrein 0.5 nM, substrate Acetyl-K-P-R-AFC, pH 7.4. Type of experiment: biochemical. The procedure:
The effectiveness of a compound of the present invention as an inhibitor of plasma kallikrein can be determined using a relevant purified serine protease, and an appropriate synthetic substrate. The rate of hydrolysis of the chromogenic or fluorogenic substrate by the relevant serine protease was measured both in the absence and presence of compounds of the present invention. Assays were conducted at rt or at 37° C. […] A decrease in the rate of fluorescence change in the presence of inhibitor is indicative of enzyme inhibition. Such methods are known to one skilled in the art. The results of this assay are expressed as the half-maximal inhibitory concentrations (IC50), or the inhibitory constant, Ki.
Plasma kallikrein determinations were made in 50 mM HEPES buffer at pH 7.4 containing 150 mM NaCl, 5 mM CaCl2), and 0.1% PEG 8000 (polyethylene glycol; Fisher Scientific). […]
Times required to achieve equilibration between enzyme and inhibitor were determined in control experiments. The reactions were performed under linear progress curve conditions and fluorescence increase measured at 405 Ex/510 Em nm. […] IC50 was determined by inflection point from a four parameter logistic curve fit. Ki was calculated using the Cheng Prusoff equation, Ki=IC50/(1+([S]/Km)).
One may read the IC50 as the midpoint of a concentration-inhibition curve. Higher therefore signals a need for much substance. `CC(c1cnc(N2C[C@H]3C[C@H]3C2C(=O)N(C)C)nc1)n1cc(NC(=O)c2cncc(-c3c(C(F)F)ccc(Cl)c3F)n2)cn1` (single isomer, unassigned) [Example 203, (1R,2S,5S or 1S,2R,5R)-3-(5-((S or R)-1-(4-(6-(3-Chloro-6-(difluoromethyl)-2-fluorophenyl)pyrazine-2-carboxamido)-1H-pyrazol-1-yl)ethyl)pyrimidin-2-yl)-N,N-dimethyl-3-azabicyclo[3.1.0]hexane-2-carboxamide] displayed an IC50 of 77.8 nM.

The compound `Cc1cc(N2CCC2)ncc1[C@@H](C)n1cc(NC(=O)c2cncc(-c3c(C(F)F)ccc(Cl)c3F)n2)cn1` (single isomer, unassigned) [Example 67] showed an IC50 of 153 nM.

In turn, `CC(c1cnc(N2CC[C@H]2CN(C)[C@H]2CCC[C@@H]2O)nc1)n1cc(NC(=O)c2cncc(-c3c(C(F)F)ccc(Cl)c3F)n2)cn1` (stereo partly drawn) [Example 183, 6-(3-Chloro-6-(difluoromethyl)-2-fluorophenyl)-N-(1-(1-(2-((S)-2-((((1S,2S)-2-hydroxycyclopentyl)(methyl)amino)methyl)azetidin-1-yl)pyrimidin-5-yl)ethyl)-1H-pyrazol-4-yl)pyrazine-2-carboxamide] returned an IC50 of 4.2 nM. This IC50 lies about 36-fold lower than the previous one.

As for `CC(c1cnc(N2CC[C@H]2[C@@H](C)N[C@@H]2CCC[C@H]2O)nc1)n1cc(NC(=O)c2cncc(-c3c(C(F)F)ccc(Cl)c3F)n2)cn1` (stereo partly drawn) [Example 193, 6-(3-Chloro-6-(difluoromethyl)-2-fluorophenyl)-N-(1-(1-(2-((S)-2-((R)-1-(((1R,2R)-2-hydroxycyclopentyl)amino)ethyl)azetidin-1-yl)pyrimidin-5-yl)ethyl)-1H-pyrazol-4-yl)pyrazine-2-carboxamide], the half-inhibitory concentration (IC50) is 8.1 nM.

Consider `Cc1nc(N2CCC2)cnc1Cn1cc(NC(=O)c2cncc(-c3c(C(F)F)ccc(Cl)c3F)n2)cn1` [Example 24, N-(1-((5-(Azetidin-1-yl)-3-methylpyrazin-2-yl)methyl)-1H-pyrazol-4-yl)-6-(3-chloro-6-(difluoromethyl)-2-fluorophenyl)pyrazine-2-carboxamide], for which 26.8 nM corresponded to half-maximal inhibition (IC50).

Turning to `O=C(Nc1cnn(Cc2ccc(N3CCCC3CO)nc2)c1)c1cncc(-c2c(C(F)F)ccc(Cl)c2F)n1` (stereo not shown) [Example 118, 6-(3-Chloro-6-(difluoromethyl)-2-fluorophenyl)-N-(1-((6-(2-(hydroxymethyl)pyrrolidin-1-yl)pyridin-3-yl)methyl)-1H-pyrazol-4-yl)pyrazine-2-carboxamide], 12.5 nM corresponded to half-maximal inhibition (IC50).

`CC(c1cnc(N2CC[C@H]2[C@@H](C)NCC2(O)CC2)nc1)n1cc(NC(=O)c2cncc(-c3c(C(F)F)ccc(Cl)c3F)n2)cn1` (stereo partly drawn) [Example 192, 6-(3-Chloro-6-(difluoromethyl)-2-fluorophenyl)-N-(1-(1-(2-((S)-2-((R)-1-(((1-hydroxycyclopropyl)methyl)amino)ethyl)azetidin-1-yl)pyrimidin-5-yl)ethyl)-1H-pyrazol-4-yl)pyrazine-2-carboxamide] returned an IC50 of 4.1 nM.

For the compound `O=C(Nc1cnn(Cc2cnc(N3CCC3)nc2)c1)c1nc(-c2c(C(F)F)ccc(Cl)c2F)cnc1O` [Example 20, N-(1-((2-(Azetidin-1-yl)pyrimidin-5-yl)methyl)-1H-pyrazol-4-yl)-6-(3-chloro-6-(difluoromethyl)-2-fluorophenyl)-3-hydroxypyrazine-2-carboxamide], the IC50 is 15.4 nM.

Take `CC(c1cnc(N2CC[C@H]2[C@@H](C)N[C@H](C)C(C)(C)O)nc1)n1cc(NC(=O)c2cncc(-c3c(C(F)F)ccc(Cl)c3F)n2)cn1` (stereo partly drawn) [Example 194, 6-(3-Chloro-6-(difluoromethyl)-2-fluorophenyl)-N-(1-(1-(2-((S)-2-((R)-1-(((R)-3-hydroxy-3-methylbutan-2-yl)amino)ethyl)azetidin-1-yl)pyrimidin-5-yl)ethyl)-1H-pyrazol-4-yl)pyrazine-2-carboxamide]: the IC50 was 21.6 nM. This IC50 and that of the compound before are within 1.5-fold of each other.

On to `COC[C@@H]1CCCN1c1ccc(Cn2cc(NC(=O)c3cncc(-c4c(C(F)F)ccc(Cl)c4F)n3)cn2)cn1` [Example 120, (S)-6-(3-Chloro-6-(difluoromethyl)-2-fluorophenyl)-N-(1-((6-(2-(methoxymethyl)pyrrolidin-1-yl)pyridin-3-yl)methyl)-1H-pyrazol-4-yl)pyrazine-2-carboxamide], for which half-maximal inhibition (IC50) required 17.8 nM. The IC50 values of the last two compounds are within 1.5-fold of each other.

Turning to `CC(c1cnc(N2CC3CC3C2C#N)nc1)n1cc(NC(=O)c2cncc(-c3c(C(F)F)ccc(Cl)c3F)n2)cn1` (single isomer, unassigned) [Example 197], the IC50 worked out at 412 nM.

In turn, `O=C(Nc1cnn(Cc2ccc(N3CCC4OCCC43)nc2)c1)c1cncc(-c2c(C(F)F)ccc(Cl)c2F)n1` (single isomer, unassigned) [Example 122, 6-(3-Chloro-6-(difluoromethyl)-2-fluorophenyl)-N-(1-((6-((3aR,6aR or 3aS,6aS)-hexahydro-4H-furo[3,2-b]pyrrol-4-yl)pyridin-3-yl)methyl)-1H-pyrazol-4-yl)pyrazine-2-carboxamide] came in with an IC50 of 19.5 nM.

`CC(c1cnc(N2CC[C@H]2CN[C@H](C)C(C)(C)O)nc1)n1cc(NC(=O)c2cncc(-c3c(C(F)F)ccc(Cl)c3F)n2)cn1` (stereo partly drawn) [Example 182, 6-(3-Chloro-6-(difluoromethyl)-2-fluorophenyl)-N-(1-(1-(2-((S)-2-((((R)-3-hydroxy-3-methylbutan-2-yl)amino)methyl)azetidin-1-yl)pyrimidin-5-yl)ethyl)-1H-pyrazol-4-yl)pyrazine-2-carboxamide]: the IC50 was determined as 6.1 nM.

As to `CC1C2CC2CN1c1ncc(C(CO)n2cc(NC(=O)c3cncc(-c4c(C(F)F)ccc(Cl)c4F)n3)cn2)cn1` (single isomer, unassigned) [Example 48, 6-(3-Chloro-6-(difluoromethyl)-2-fluorophenyl)-N-(1-((S or R)-2-hydroxy-1-(2-((1S,2R,5R or 1R, 2S, 5S)-2-methyl-3-azabicyclo[3.1.0]hexan-3-yl)pyrimidin-5-yl)ethyl)-1H-pyrazol-4-yl)pyrazine-2-carboxamide], half-maximal inhibition (IC50) was put at 730 nM.

`N#Cc1ccc(Cl)c(F)c1-c1cncc(C(=O)Nc2cnn(Cc3cnc(N4CCC4)nc3)c2)n1` [Example 53, N-(1-((2-(Azetidin-1-yl)pyrimidin-5-yl)methyl)-1H-pyrazol-4-yl)-6-(3-chloro-6-cyano-2-fluorophenyl)pyrazine-2-carboxamide] returned an IC50 of 30.7 nM.

In turn, `O=C(Nc1cnn(Cc2ccc(N3CC4C(C3)C4(F)F)nc2)c1)c1cncc(-c2c(C(F)F)ccc(Cl)c2F)n1` (stereo not shown) [Example 127, 6-(3-Chloro-6-(difluoromethyl)-2-fluorophenyl)-N-(1-((6-(6,6-difluoro-3-azabicyclo[3.1.0]hexan-3-yl)pyridin-3-yl)methyl)-1H-pyrazol-4-yl)pyrazine-2-carboxamide] returned an IC50 of 31.3 nM.

Consider `O=C(Nc1cnn(Cc2cnc(N3CCCC3C3(O)CC3)nc2)c1)c1cncc(-c2c(C(F)F)ccc(Cl)c2F)n1` (stereo not shown) [Example 107, 6-(3-Chloro-6-(difluoromethyl)-2-fluorophenyl)-N-(1-((2-(2-(1-hydroxycyclopropyl)pyrrolidin-1-yl)pyrimidin-5-yl)methyl)-1H-pyrazol-4-yl)pyrazine-2-carboxamide], for which the IC50 was found to be 43.5 nM.

Regarding `O=C(Nc1cnn(Cc2ccc(N3CCC(CO)C3)nc2)c1)c1cncc(-c2c(C(F)F)ccc(Cl)c2F)n1` (stereo not shown) [Example 132, 6-(3-Chloro-6-(difluoromethyl)-2-fluorophenyl)-N-(1-((6-(3-(hydroxymethyl)pyrrolidin-1-yl)pyridin-3-yl)methyl)-1H-pyrazol-4-yl)pyrazine-2-carboxamide], the IC50 is 49 nM.

With `CC(c1cnc(N2CC[C@H]2[C@@H](C)N2CC(C(C)(C)O)C2)nc1)n1cc(NC(=O)c2cncc(-c3c(C(F)F)ccc(Cl)c3F)n2)cn1` (stereo partly drawn) [Example 191, 6-(3-Chloro-6-(difluoromethyl)-2-fluorophenyl)-N-(1-(1-(2-((S)-2-((R)-1-(3-(2-hydroxypropan-2-yl)azetidin-1-yl)ethyl)azetidin-1-yl)pyrimidin-5-yl)ethyl)-1H-pyrazol-4-yl)pyrazine-2-carboxamide], the IC50 was determined as 1.1 nM. Against the preceding compound, the IC50 is about 45-fold lower.

Consider `CC(=O)N1CC[C@@H]2CN(c3ccc(Cn4cc(NC(=O)c5cncc(-c6c(C(F)F)ccc(Cl)c6F)n5)cn4)cn3)[C@@H]2C1` [Example 133, N-(1-((6-((1S,6R)-3-Acetyl-3,8-diazabicyclo[4.2.0]octan-8-yl)pyridin-3-yl)methyl)-1H-pyrazol-4-yl)-6-(3-chloro-6-(difluoromethyl)-2-fluorophenyl)pyrazine-2-carboxamide], for which the IC50 worked out at 49.5 nM.

`O=C(Nc1cnn(Cc2ccc(N3CCNC4(CC4)C3)nc2)c1)c1cncc(-c2c(C(F)F)ccc(Cl)c2F)n1` [Example 128, N-(1-((6-(4,7-Diazaspiro[2.5]octan-7-yl)pyridin-3-yl)methyl)-1H-pyrazol-4-yl)-6-(3-chloro-6-(difluoromethyl)-2-fluorophenyl)pyrazine-2-carboxamide]: the IC50 is 32.2 nM.

Take `O=C(Nc1cnn(Cc2cnc(N3CCCC3CN3CCOCC3)nc2)c1)c1cncc(-c2c(C(F)F)ccc(Cl)c2F)n1` (stereo not shown) [Example 153, 6-(3-Chloro-6-(difluoromethyl)-2-fluorophenyl)-N-(1-((2-(2-(morpholinomethyl)pyrrolidin-1-yl)pyrimidin-5-yl)methyl)-1H-pyrazol-4-yl)pyrazine-2-carboxamide]: inhibition was half-maximal at 1.1 nM (IC50).
